From US10357486B2, “Treatment of cognitive impairment with PDE4 inhibitor” (Universiteit Maastricht, priority 2013, dated 2019)
“Also recorded” adds a separate entry of the source. Marks after values point to notes of the source that are not given here.

Tests used:
[1] = system: spatial memory in male C57BL/6NCrl mice; assay: Object Location Task (OLT), 24-hour retention interval; type: in vivo; settings: for d2 index, discrimination index between the new and familiar objects for T2: given 3 hours after T1, T2 after 24 h, mean (SEM)
Excerpt: The objective of this study was to evaluate the cognitive improvement effects of Roflumilast on spatial memory employing Object Location Task (OLT) in male C57BL/6NCrl mice. Roflumilast was compared with data of the already established PDE4 inhibitor Rolipram in the same model.
Maintenance of Animals Twenty-four 7 month-old male C57BL/6NCrl mice (Charles River, L'Arbresle, France) were used (average body weights: 27.6 g). The animals were kept under a 12/12-hour light/dark cycle (lights on from 07.00 pm to 07.00 am) with free access to food and water. All testing was done between 09.00 am and maximally 06.00 pm.
Preparation of Compounds for Administration Both rolipram (Sigma-Aldrich St. Louis, USA; MW 275.34) and roflumilast (Biocrea, Radebeul, Germany; MW 403.21) were dissolved in dimethylsulfoxide (DMSO) and kept at 4 ° C.; this stock solution was used for further dilutions in 0.5% methylcellulose. Each of rolipram and roflumilast is used in form of its free base. All injected solutions consisted of 0.5% methylcellulose with a fixed DMSO percentages (1.2%) (vehicle).
Object Location Task Studies in Rodents For the Object Location Task (OLT), doses of 0.01 mg/kg, 0.03 mg/kg and 0.1 mg/kg of Rolipram or Roflumilast or vehicle were administered subcutaneously (s.c.). Based on previous findings, PDE4 inhibitor single administration was performed 3 hours after the first trial as this has an optimum effect on object memory performance. The injection volume was 5 μl/g.
The OLT apparatus consisted of a circular arena, 40 cm in diameter. Half of the 40 cm transparent polyvinyl chloride wall was covered from the outside with white paper. Two objects were placed symmetrically about 10 cm away from the wall on the separation line, between the transparent and covered side of the arena. Four different sets of objects were available: (1) a cone made of brass (maximal diameter 6 cm and total height 3.8 cm), (2) a transparent glass bottle (diameter 2.7 cm, height 8.5 cm) filled with sand and water, (3) a massive metal cube (2.5 cm×5 cm×7.5 cm) with two holes (diameter 1.5 cm), and (4) a massive aluminum cube with a tapering top (4.5 cm×4.5 cm×8.5 cm).
A testing session comprised two trials of 4 minutes. Before each trial, mice were placed in an empty Makrolon cage (incubation cage) for the same amount of time as the trial (4 min). During the first trial (T1), two identical objects were placed symmetrically about 10 cm away from the wall on the separation line between the transparent and covered side of the arena. After the first exploration period of 4 min, the mouse was put back in its home cage. Mice then received treatment at 3 hours post T1. Subsequently, after a predetermined delay interval (24h), the mouse was placed in the apparatus for the second trial of 4 min (T2). Two identical objects as in T1 were used; one object was placed in the previously used position, whereas the other was placed in a novel position. The novel position of the object could either be a fixed distance towards the front or a fixed distance towards the back of the arena for both objects. The times spent exploring each object during T1 and T2 were recorded manually using a personal computer. All objects and locations were used in a balanced manner to exclude possible object and/or location preferences. To avoid olfactory cues, the objects were thoroughly cleaned with 70% ethanol after each trial. The testing order of conditions was determined randomly.
Statistical Data Analysis The measurements reflected the time spent by the mice in exploring each object during T1 and T2. The time spent in exploring the two identical samples in T1 were represented by ‘a1’ and ‘a2’, respectively. The time spent in exploring the sample and the new object in T2 were represented by ‘a’ and ‘b’, respectively. From these exploration times the following variables were calculated: e1, e2, and d2 (Table 1). The d2 index is a relative measure of discrimination corrected for exploratory activity. […]

[2] = system: healthy adults (18 to 35 years); assay: Verbal Learning Task (VLT) in healthy adults, 18 to 35 years; type: in vivo, human
Excerpt: The objective of this proof-of-concept study was to validate Roflumilast as cognitive enhancer using a translational behavior (i.e., cognitive testing)—EEG (i.e., brain electrical activity) approach.
Verbal Learning Task Analysis_The study utilized Verbal Learning Task (VLT) to analyze the increased number of words remembered following roflumilast administration. The VLT consisted of displaying 30 monosyllable words on a computer screen for a period of 60 seconds. Immediately after the presentation of the words on the computer screen subjects were asked to report as many words as they could recall by memory. This process (presentation and recall) was repeated further two times. In addition, 45 min and 24 h after the last presentation, subjects were again asked to report as many words as they could recall by memory. The set of three recall trials was conducted 60 minutes following administration of the roflumilast therapy.
Statistical Data Analyses Human data was analyzed using IBM SPSS Statistics version 20. General Linear Models for repeated measures were applied with the placebo condition included as contrast. Statistical outcomes for Tests of Within-Subjects Effects and
Tests of Within-Subjects Contrasts were regarded for immediate and delayed free recall scores and for the summed immediate recall score (i.e. immediate 1+immediate 2+immediate 3). The factor Treatment (4 levels; placebo, roflumilast 100 mcg, roflumilast 300 mcg and roflumilast 1000 mcg) was included as a within subjects factor. For the analysis of the EEG data, the factor Channel (5 levels; Fz, FCz, Cz, CPz, and Pz) was included as a second within subjects factor. Peak and latency values of three memory related ERP's were analysed; i.e. P300, N400 and P600. In case of significant findings (p<0.05) post-hoc t-tests were performed to reveal which of the five midline electrodes contributed to the effect.

## O=C(Nc1c(Cl)cncc1Cl)c1ccc(OC(F)F)c(OCC2CC2)c1 [roflumilast, N-(3,5-dichloropyridin-4-yl)-3-cyclopropylmethoxy-4-difluoromethoxybenzamide]
[1]; 0.01 mg/kg s.c.
  d2 index, discrimination index between the new and familiar objects for T2: 0.04 (0.05)
[1]; 0.03 mg/kg s.c.
  d2 index compared with the vehicle condition (post-hoc Bonferroni t-test): differed significantly from the vehicle condition
  d2 index, discrimination index between the new and familiar objects for T2: 0.34 (0.03) ###
[1]; 0.03 mg/kg s.c., after twenty-four hours
  d2 index compared with zero (one-sample t-test): significantly differed from zero
[1]; 0.1 mg/kg s.c.
  d2 index, discrimination index between the new and familiar objects for T2: 0.00 (0.06)
[1]; single subcutaneous administration of 0.01 mg/kg
  effect on spatial memory measured by the object location task test: nearly no effect
[1]; single subcutaneous administration of 0.03 mg/kg, 0.03 mg/kg
  effect on spatial memory measured by the object location task test: effective; also recorded: pronounced effect
[1]; single subcutaneous administration of 0.1 mg/kg
  effect on spatial memory measured by the object location task test: completely no effect
[2]; 100 mcg single dose, healthy volunteer study, 3rd trial
  placebo-corrected fold-improvement in VLT: 1.12
[2]; 100 mcg single dose, young volunteers, placebo 21.25
  number of words on the 3rd trial of VLT: 23.7 words
[2]; single oral dose of 100 mcg, after the third trial
  improvement in number of correct words recalled in VLT (average): 2.5 words
